Test results: patent publication US20230053688A1, “METHODS TO ALTER LATENCY IN EBV+ MALIGNANCIES” (Cornell University, priority 2020, published 2023)
Where a name gives a salt, the structure may show the parent alone. Read-outs that look alike come from different tables or passages of the source.

Test system: LMP1 expression in Kem I cells
Experiment: microbe, parasite or virus in culture
Type: cell-based, EBV
Details: for fold induction at 2.5 µM / fold induction at 1 µM: human gammaherpesvirus 4, 48 h
[1] = Kem I cells, dose 2.5 uM, 48 hours, LMP1 transcript by in-well qRT-PCR, average of the two replicates
[2] = Kem I cells, dose 2.5 uM, 48 hours, LMP1 transcript by in-well qRT-PCR, screen replicate 1
[3] = Kem I cells, dose 2.5 uM, 48 hours, LMP1 transcript by in-well qRT-PCR, screen replicate 2
[4] = Kem I cells, 2.5 uM, 48 hours, average of replicates 1 and 2
[5] = Kem I cells, 2.5 uM, 48 hours, fold change in LMP1 transcript vs vehicle
[6] = read-out: Average LMP1 Fold Increase, Kem I cells, 2.5 uM, 48 hours, average of replicates 1 and 2
[7] = read-out: Replicate 1-LMP1 Fold Increase, Kem I cells, 2.5 uM, 48 hours, fold change in LMP1 transcript vs vehicle
[8] = read-out: Replicate 2-LMP1 Fold Increase, Kem I cells, 2.5 uM, 48 hours, fold change in LMP1 transcript vs vehicle
[9] = read-out: Average LMP1 Fold Increase, Kem I cells, 1 uM, 48 hours, average of replicates 1 and 2
[10] = read-out: Replicate 1-LMP1 Fold Increase, Kem I cells, 1 uM, 48 hours, fold change in LMP1 transcript vs vehicle
[11] = read-out: Replicate 2-LMP1 Fold Increase, Kem I cells, 1 uM, 48 hours, fold change in LMP1 transcript vs vehicle

Row | Compound | Average LMP1 Fold Increase [4] | Replicate 1-LMP1 Fold Increase [5] | Replicate 2-LMP1 Fold Increase [5] | fold induction at 2.5 µM [6] | fold induction at 2.5 µM [7] | fold induction at 2.5 µM [8] | further results
1 | C[C@@H]1CCN(C(=O)CC#N)C[C@@H]1N(C)c1ncnc2[nH]ccc12 [Tofacitinib (CP-690550,Tasocitinib)] |  |  |  |  |  |  | Average LMP1 Fold Increase [1]: 0.46 fold; Replicate 1-LMP1 Fold Increase [2]: 0.09 fold; Replicate 2-LMP1 Fold Increase [3]: 0.82 fold
2 | Pifithrin-μ | 0.78 | 0.40 | 1.17 |  |  |  | 
3 | COc1cccc2c1C(=O)c1c(O)c3c(c(O)c1C2=O)C[C@@](O)(C(C)=O)C[C@@H]3O[C@H]1C[C@H](N)[C@H](O)[C@H](C)O1 [Daunorubicin HCl] |  |  |  | 242 | 221 | 262 | 
4 | COc1ccnc2[nH]cc(C(=O)C(=O)N3CCN(C(=O)c4ccccc4)C[C@H]3C)c12 [BMS-378806] | 0.64 | 0.75 | 0.53 |  |  |  | 
5 | C[C@@H]1O[C@@H](O[C@H]2C[C@@H](O)[C@]3(CO)[C@H]4[C@H](O)C[C@]5(C)[C@@H](C6=CC(=O)OC6)CC[C@]5(O)[C@@H]4CC[C@]3(O)C2)[C@H](O)[C@H](O)[C@H]1O [Ouabain] |  |  |  | 92.1 | 22.8 | 161 | 
6 | CC[C@H](C)C(=O)O[C@H]1C[C@@H](C)C=C2C=C[C@H](C)[C@H](CC[C@@H]3C[C@@H](O)CC(=O)O3)[C@H]21 [Lovastatin] |  |  |  | 0.96 | 0.34 | 1.59 | 
7 | Cc1cn(-c2cc(NC(=O)c3ccc(C)c(Nc4nccc(-c5cccnc5)n4)c3)cc(C(F)(F)F)c2)cn1 [Nilotinib (AMN-107)] | 0.27 | 0.20 | 0.33 |  |  |  | 
8 | O=C(O)CCc1ccc(NCc2cccc(Oc3ccccc3)c2)cc1 [GW9508] | 0.48 | 0.52 | 0.45 |  |  |  | 
9 | CCCc1nc2c(C)cc(-c3nc4ccccc4n3C)cc2n1Cc1ccc(-c2ccccc2C(=O)O)cc1 [Telmisartan] |  |  |  |  |  |  | fold induction at 2.5 µM (read-out: Average LMP1 Fold Increase, Kem I cells, dose 2.5 uM, 48 hours, LMP1 transcript by in-well qRT-PCR, average of the two replicates): 0.37; fold induction at 2.5 µM (read-out: Replicate 1-LMP1 Fold Increase, Kem I cells, dose 2.5 uM, 48 hours, LMP1 transcript by in-well qRT-PCR, screen replicate 1): 0.29; fold induction at 2.5 µM (read-out: Replicate 2-LMP1 Fold Increase, Kem I cells, dose 2.5 uM, 48 hours, LMP1 transcript by in-well qRT-PCR, screen replicate 2): 0.45
10 | Cn1c(N2CCCCS2(=O)=O)nc(C(=O)NCc2ccc(F)cc2)c(O)c1=O [BMS-707035] |  |  |  | 43.1 | 18.2 | 68 | 
11 | COc1cc(-c2ncn(/C=C\C(=O)OC(C)C)n2)cc(C(F)(F)F)c1 [KPT-185] | 0.68 | 0.56 | 0.80 |  |  |  | 
12 | Oc1ccc2ccccc2c1SSc1c(O)ccc2ccccc12 [IPA-3] | 0.27 | 0.21 | 0.33 |  |  |  | 
13 | CC(C)(C)c1cc(/C=C(\C#N)C(N)=S)cc(C(C)(C)C)c1O [Tyrphostin AG 879] |  |  |  |  |  |  | Average LMP1 Fold Increase [1]: 0.74 fold; Replicate 1-LMP1 Fold Increase [2]: 0.53 fold; Replicate 2-LMP1 Fold Increase [3]: 0.95 fold
14 | NC(=O)N1c2ccccc2CC(=O)c2ccccc21 [Oxcarbazepine] |  |  |  | 0.46 | 0.54 | 0.38 | 
15 | COC1=CC(c2cc3ccccc3[nH]2)=N/C1=C\c1[nH]c(C)cc1C [Obatoclax] |  |  |  |  |  |  | fold induction at 1 µM [9]: 13.7; fold induction at 1 µM [10]: 24.3; fold induction at 1 µM [11]: 3.03
16 | CC(C)CCNC(=O)[C@H](CC(C)C)NC(=O)[C@H]1O[C@@H]1C(=O)O [Loxistatin Acid (E-64C)] | 0.55 | 0.62 | 0.48 |  |  |  | 
17 | O=C(Nc1ccccc1-c1cn2c(CN3CCNCC3)csc2n1)c1cnc2ccccc2n1 [SRT1720] | 0.64 | 0.58 | 0.70 |  |  |  | 
18 | O=S(=O)(c1ccccc1)c1cnc2c(N3CCNCC3)cccc2c1 [SB742457] | 0.82 | 1.09 | 0.55 |  |  |  | 
19 | Cc1cc(Nc2cc(N3CCN(C)CC3)nc(Sc3ccc(NC(=O)C4CC4)cc3)n2)n[nH]1 [VX-680 (Tozasertib, MK-0457)] |  |  |  |  |  |  | Average LMP1 Fold Increase [1]: 0.74 fold; Replicate 1-LMP1 Fold Increase [2]: 0.96 fold; Replicate 2-LMP1 Fold Increase [3]: 0.52 fold
20 | COc1ccccc1N1CCN(CC(O)COc2cccc3ccccc23)CC1 (stereo not drawn) [Naftopidil] |  |  |  | 1.15 | 1.36 | 0.95 | 
21 | C1=N/C2=N/c3ccc(OCCN4CCCC4)c(c3)COC/C=C/COCc3cccc(c3)C(=C1)N2 [Pacritinib (SB1518)] | 0.37 | 0.24 | 0.49 |  |  |  | 

Row | Compound | Average LMP1 Fold Increase [4] | Replicate 1-LMP1 Fold Increase [5] | Replicate 2-LMP1 Fold Increase [5] | fold induction at 2.5 µM [6] | fold induction at 2.5 µM [7] | fold induction at 2.5 µM [8] | further results
22 | COc1ccc2cccc(CCNC(C)=O)c2c1 [Agomelatine] |  |  |  | 0.43 | 0.34 | 0.52 | 
23 | O=C(NC(Cc1cc(=O)[nH]c2ccccc12)C(=O)O)c1ccc(Cl)cc1 (stereo not drawn) [Rebamipide] |  |  |  | 0.85 | 0.48 | 1.23 | 
24 | Cc1sc2c(c1C)C(c1ccc(Cl)cc1)=N[C@@H](CC(=O)Nc1ccc(O)cc1)c1nnc(C)n1-2 [OTX015] |  |  |  | 0.63 | 0.14 | 1.12 | 
25 | CC(C)C[C@@H](C(=O)N[C@H](C(=O)OC1CCCC1)c1ccccc1)[C@H](O)C(=O)NO [Tosedostat (CHR2797)] |  |  |  |  |  |  | Average LMP1 Fold Increase [1]: 0.64 fold; Replicate 1-LMP1 Fold Increase [2]: 0.56 fold; Replicate 2-LMP1 Fold Increase [3]: 0.72 fold
26 | CC(=O)OCC(=O)NCCCOc1cccc(CN2CCCCC2)c1 [Roxatidine Acetate HCl] |  |  |  | 0.2 | 0.15 | 0.24 | 
27 | O=C(Nc1ccccc1)c1cc([N+](=O)[O-])ccc1Cl [GW9662] | 0.58 | 0.26 | 0.89 |  |  |  | 
28 | OCCn1cc(-c2cnc3nnn(Cc4ccc5ncccc5c4)c3n2)cn1 [PF-04217903] | 1.03 | 0.96 | 1.11 |  |  |  | 
29 | CN(C)CCCCC(=O)Nc1ccc(NC(=S)NC(=O)c2ccc(C(C)(C)C)cc2)cc1 [Tenovin-6] |  |  |  |  |  |  | Average LMP1 Fold Increase [1]: 1.79 fold; Replicate 1-LMP1 Fold Increase [2]: 1.55 fold; Replicate 2-LMP1 Fold Increase [3]: 2.03 fold
30 | COc1cc2c(cc1OC)[C@@H]1Cc3ccc(OC)c(OC)c3CN1CC2 [Rotundine] |  |  |  | 0.28 | 0.3 | 0.27 | 
31 | CCN(c1cc(C#CCN2CCOCC2)cc(C(=O)NCc2c(C)cc(C)[nH]c2=O)c1C)[C@H]1CC[C@H](N(C)CCOC)CC1 [EPZ 011989] |  |  |  |  |  |  | fold induction at 1 µM [9]: 30.5; fold induction at 1 µM [10]: 4.1; fold induction at 1 µM [11]: 56.9
32 | CCC(CC)CC1(C(=O)Nc2ccccc2SC(=O)C(C)C)CCCCC1 [Dalcetrapib (JTT-705, RO4607381)] | 0.98 | 0.61 | 1.34 |  |  |  | 
33 | COc1ccc(COc2ccc(Cc3cnc(N)nc3N)cc2OC)cc1 [GW2580] | 0.49 | 0.50 | 0.48 |  |  |  | 
34 | O=C1CC[C@@]2(O)[C@H]3Cc4ccc(O)c5c4[C@@]2(CCN3CC2CC2)[C@H]1O5 [Naltrexone HCl] |  |  |  | 0.27 | 0.34 | 0.19 | 
35 | CN1CCCCC1Cn1cc(C(=O)c2cc([N+](=O)[O-])ccc2I)c2ccccc21 (stereo not drawn) [AM1241] | 0.79 | 1.01 | 0.56 |  |  |  | 
36 | CNC(=O)c1ccc(N2C(=S)N(c3ccc(C#N)c(C(F)(F)F)c3)C(=O)C2(C)C)cc1F [Enzalutamide (MDV3100)] | 0.96 | 0.88 | 1.05 |  |  |  | 
37 | COc1ccc(-n2nc(C(N)=O)c3c2C(=O)N(c2ccc(N4CCCCC4=O)cc2)CC3)cc1 [Apixaban] |  |  |  | 0.32 | 0.4 | 0.24 | 
38 | CC(C)(C)n1nc(-c2ccc(Cl)cc2)c2c(N)ncnc21 [PP2] | 1.01 | 0.73 | 1.28 |  |  |  | 
39 | O=C(NCc1ccccc1)c1csc(Nc2ccncn2)n1 [Thiazovivin] |  |  |  |  |  |  | Average LMP1 Fold Increase [1]: 1.05 fold; Replicate 1-LMP1 Fold Increase [2]: 1.05 fold; Replicate 2-LMP1 Fold Increase [3]: 1.04 fold
40 | CC(=O)c1cc([N+](=O)[O-])c(Sc2ccc(F)cc2F)s1 [P22077] | 0.25 | 0.20 | 0.29 |  |  |  | 
41 | C=CC(=O)N1CCC[C@@H](n2nc(-c3ccc(Oc4ccccc4)cc3)c3c(N)ncnc32)C1 [Ibrutinib (PCl-32765)] |  |  |  |  |  |  | Average LMP1 Fold Increase: 0.15; Replicate 1-LMP1 Fold Increase: 0.09; Replicate 2-LMP1 Fold Increase: 0.22
